In patent US12479804B2, “Herbicidal compounds” (SYNGENTA CROP PROTECTION AG, priority 2019, dated 2025):

Experiments:
Assay in all cases: Glasshouse herbicidal test, pre- and post-emergence, percentage damage to the plant
Type in all cases: in vivo
Avena fatua (AVEFA) = conditions: 250 g/h, evaluated after 13 days; for AVEFA POST percentage damage caused to the plant (five-point scale): post-emergence; for AVEFA PRE percentage damage caused to the plant (five-point scale): pre-emergence
Experimental: (§1) Seeds of a variety of test species are sown in standard soil in pots (Lolium perenne (LOLPE), Setaria faberi (SETFA), Alopecurus myosuroides (ALOMY), Echinochloa crus-galli (ECHCG), Avena fatua (AVEFA)). After cultivation for one day (pre-emergence) or after 8 days cultivation (post-emergence) under controlled conditions in a glasshouse (at 24/16° C., day/night; 14 hours light; 65% humidity), the plants are sprayed with an aqueous spray solution derived from the formulation of the technical active ingredient in acetone/water (50:50) solution containing 0.5% Tween 20 (polyoxyethelyene sorbitan monolaurate, CAS RN 9005-64-5). Compounds are applied at 250 g/h. The test plants are then grown in a glasshouse under controlled conditions in a glasshouse (at 24/16° C., day/night; 14 hours light; 65% humidity) and watered twice daily. After 13 days for pre and post-emergence, the test is evaluated for the percentage damage caused to the plant. The biological activities are shown in the following table on a five-point scale (5=80-100%; 4=60-79%; 3=40-59%; 2=20-39%; 1=0-19%).

[1] = system: Alopecurus myosuroides (ALOMY); conditions: 250 g/h, evaluated after 13 days; for ALOMY POST percentage damage caused to the plant (five-point scale): post-emergence; for ALOMY PRE percentage damage caused to the plant (five-point scale): pre-emergence
Experimental: as §1

Lolium perenne (LOLPE) = conditions: 250 g/h, evaluated after 13 days; for LOLPE POST percentage damage caused to the plant (five-point scale): post-emergence; for LOLPE PRE percentage damage caused to the plant (five-point scale): pre-emergence
Experimental: as §1

[2] = system: Echinochloa crus-galli (ECHCG); conditions: 250 g/h, evaluated after 13 days; for ECHCG POST percentage damage caused to the plant (five-point scale): post-emergence; for ECHCG PRE percentage damage caused to the plant (five-point scale): pre-emergence
Experimental: as §1

Setaria faberi (SETFA) = conditions: 250 g/h, evaluated after 13 days; for SETFA POST percentage damage caused to the plant (five-point scale): post-emergence; for SETFA PRE percentage damage caused to the plant (five-point scale): pre-emergence
Experimental: as §1

| SMILES | AVEFA POST percentage damage caused to the plant (five-point scale) (Avena fatua (AVEFA)) | AVEFA PRE percentage damage caused to the plant (five-point scale) (Avena fatua (AVEFA)) | ALOMY POST percentage damage caused to the plant (five-point scale) [1] | ALOMY PRE percentage damage caused to the plant (five-point scale) [1] | LOLPE POST percentage damage caused to the plant (five-point scale) (Lolium perenne (LOLPE)) | LOLPE PRE percentage damage caused to the plant (five-point scale) (Lolium perenne (LOLPE)) | ECHCG POST percentage damage caused to the plant (five-point scale) [2] | ECHCG PRE percentage damage caused to the plant (five-point scale) [2] | SETFA POST percentage damage caused to the plant (five-point scale) (Setaria faberi (SETFA)) | SETFA PRE percentage damage caused to the plant (five-point scale) (Setaria faberi (SETFA)) |
| --- | --- | --- | --- | --- | --- | --- | --- | --- | --- | --- |
| CC#Cc1cc(C)c(C2C(=O)CC3(CCC(=O)N(CC(=O)OC)C3)CC2=O)c(C)c1 (stereo not drawn) [Compound A12] | 5 (5=80-100%) | 3 (3=40-59%) | 2 (2=20-39%) | 5 (5=80-100%) | 5 (5=80-100%) | 5 (5=80-100%) | 5 (5=80-100%) | 5 (5=80-100%) | 5 (5=80-100%) | 5 (5=80-100%) |
| CC#Cc1cc(C)c(C2C(=O)CC3(CCN4C(=O)CCCC4C3)CC2=O)c(C)c1 (stereo not drawn) [Compound A13] | 5 (5=80-100%) | 5 (5=80-100%) | 5 (5=80-100%) | 5 (5=80-100%) | 5 (5=80-100%) | 5 (5=80-100%) | 5 (5=80-100%) | 5 (5=80-100%) | 5 (5=80-100%) | 5 (5=80-100%) |
| CC#Cc1cc(C)c(C2C(=O)CC3(CCN4C(=O)CCC4C3)CC2=O)c(C)c1 (stereo not drawn) [Compound A14] | 5 (5=80-100%) | 5 (5=80-100%) | 5 (5=80-100%) | 5 (5=80-100%) | 5 (5=80-100%) | 5 (5=80-100%) | 5 (5=80-100%) | 5 (5=80-100%) | 5 (5=80-100%) | 5 (5=80-100%) |
| CC#Cc1cc(C)c(C2C(=O)CC3(C=CN(C(=O)COC)CC3)CC2=O)c(C)c1 (stereo not drawn) [Compound A15] | 5 (5=80-100%) | 5 (5=80-100%) | 5 (5=80-100%) | 5 (5=80-100%) | 5 (5=80-100%) | 5 (5=80-100%) | 5 (5=80-100%) | 5 (5=80-100%) | 5 (5=80-100%) | 5 (5=80-100%) |
| CC#Cc1cc(C)c(C2C(=O)CC3(C=CN(C(=O)c4ccccn4)CC3)CC2=O)c(C)c1 (stereo not drawn) [Compound A48] | 5 (5=80-100%) | 5 (5=80-100%) | 5 (5=80-100%) | 5 (5=80-100%) | 5 (5=80-100%) | 5 (5=80-100%) | 5 (5=80-100%) | 5 (5=80-100%) | 5 (5=80-100%) | 5 (5=80-100%) |
| CC#Cc1cc(C)c(C2C(=O)CC3(C=CN(C(=O)C4CC4)CC3)CC2=O)c(C)c1 (stereo not drawn) [Compound A49] | 5 (5=80-100%) | 5 (5=80-100%) | 5 (5=80-100%) | 5 (5=80-100%) | 5 (5=80-100%) | 5 (5=80-100%) | 5 (5=80-100%) | 5 (5=80-100%) | 5 (5=80-100%) | 5 (5=80-100%) |
| CC#Cc1cc(C)c(C2C(=O)CC3(C=CN(C(=O)COC(F)F)CC3)CC2=O)c(C)c1 (stereo not drawn) [Compound A50] | 5 (5=80-100%) | 5 (5=80-100%) | 5 (5=80-100%) | 5 (5=80-100%) | 5 (5=80-100%) | 5 (5=80-100%) | 5 (5=80-100%) | 5 (5=80-100%) | 5 (5=80-100%) | 5 (5=80-100%) |
| CC#Cc1cc(C)c(C2C(=O)CC3(C=CN(C(=O)CC#N)CC3)CC2=O)c(C)c1 (stereo not drawn) [Compound A51] | 5 (5=80-100%) | 5 (5=80-100%) | 5 (5=80-100%) | 5 (5=80-100%) | 5 (5=80-100%) | 5 (5=80-100%) | 5 (5=80-100%) | 5 (5=80-100%) | 5 (5=80-100%) | 5 (5=80-100%) |
| CC#Cc1cc(C)c(C2C(=O)CC3(C=CN(C(=O)NC(C)(C)C)CC3)CC2=O)c(C)c1 (stereo not drawn) [Compound A53] | 4 (4=60-79%) | 2 (2=20-39%) | 5 (5=80-100%) | 5 (5=80-100%) | 5 (5=80-100%) | 5 (5=80-100%) | 5 (5=80-100%) | 5 (5=80-100%) | 5 (5=80-100%) | 5 (5=80-100%) |
| CC#Cc1cc(C)c(C2C(=O)CC3(C=CN(C(=O)NC(=O)C(C)(C)C)CC3)CC2=O)c(C)c1 (stereo not drawn) [Compound A54] | 5 (5=80-100%) | 5 (5=80-100%) | 5 (5=80-100%) | 5 (5=80-100%) | 5 (5=80-100%) | 5 (5=80-100%) | 5 (5=80-100%) | 5 (5=80-100%) | 5 (5=80-100%) | 5 (5=80-100%) |
| CC#Cc1cc(C)c(C2C(=O)CC3(C=CN(S(=O)(=O)CC)CC3)CC2=O)c(C)c1 (stereo not drawn) [Compound A55] | 5 (5=80-100%) | 5 (5=80-100%) | 5 (5=80-100%) | 5 (5=80-100%) | 5 (5=80-100%) | 5 (5=80-100%) | 5 (5=80-100%) | 5 (5=80-100%) | 5 (5=80-100%) | 5 (5=80-100%) |
| CC#Cc1cc(C)c(C2C(=O)CC3(C=CN(C(=O)C(F)F)CC3)CC2=O)c(C)c1 (stereo not drawn) [Compound A56] | 5 (5=80-100%) | 5 (5=80-100%) | 5 (5=80-100%) | 5 (5=80-100%) | 5 (5=80-100%) | 5 (5=80-100%) | 5 (5=80-100%) | 5 (5=80-100%) | 5 (5=80-100%) | 5 (5=80-100%) |
